Key:
Type in all cases: cell-based, human
[1] = system: Vcap cells; assay: Compound in combination with androgen receptor inhibitor HC-1119, proliferation of Vcap cells (CCK-8); conditions: for IC50: Homo sapiens, VCaP, 144 h, 6 days, read-out: IC50 for inhibition on the activity of Vcap
Protocol: (§1) • Vcap cell line (Cell Bank of Chinese Academy of Sciences, TCHu220) • FBS (Gibco, Cat. No. 10099-141) • 0.01M PBS (Biosharp, Cat. No. 162262) • DMEM HIGH Glucose (Hyclone, Cat. No. SH30243.01) • Penicillin-Streptomycin (Hyclone, Cat. No. SV30010) • Cell counting kit-8 (Signalway Antibody, Cat. No. CP002) • DMSO (Sigma, Cat. No. D5879) • Centrifuge Tube, 15 ml (Excell Bio, Cat. No. CS015-0001) • Cell Culture Dish (Excell Bio, Cat. No. CS016-0128) • 96-well cell culture cluster (Corning, Cat. No. 3599) 2. Experimental Method
1) Vcap cells were subcultured in cell culture media, and the cells in good growth condition were seeded in a 96-well plate, 60 μL for each well, thus the number of cells per well was 10000, then the plate was cultured overnight in a 37° C., 5% CO2 cell incubator.
(§2) 2) The drug was prepared with dimethyl sulfoxide (DMSO) as a 10 mM stock solution. Prior to use, the solution was diluted 3 times with DMSO, and then diluted with a 3-fold gradient to obtain 9 concentration gradients. Then, each concentration of the compound was further diluted 200 times with the culture media (to ensure that DMSO concentration in the culture system was 0.1%), 2 repeat wells for each concentration. The diluted solution of each compound (20 μL) was added to the cell culture well (with a final concentration of 10 μM, 3.3 μM, 1.1 μM . . . ); while the solution of HC-1119 was diluted with culture media to the concentrations of 50 μM and […], respectively, and the diluted solution of HC-1119 was added to the corresponding cell culture well (with a final concentration of 10 μM, 1 μM), then shaken gently for mixing. In addition, three negative control wells containing only cells and three blank control wells containing only culture media (20 μL DMSO diluted 200 times with culture media being added to six wells) were included.
(§3) (1) After culturing for 6 days, 10 μL CCK-8 was added to each well and cultured for additional 2.5 h in a 37° C., 5% CO2 cell incubator.
(§4) (2) The absorbance (OD value) at 450 nm was measured with a multifunctional microplate reader.
(§5) (3) The data was analyzed by the Dose-response-inhibition equation in the software GraphPad Prism6, and the IC50 value was obtained.

[2] = system: Vcap cells; assay: Inhibition of proliferation of Vcap cells (CCK-8)
Protocol: as §1, with “Dish,” for “Dish”
1) Vcap cells were subcultured in cell culture media, and the cells in good growth condition were seeded in a 96-well plate, 80 μL for each well, thus the number of cells per well was 10000, then the plate was cultured overnight in a 37° C., 5% CO2 cell incubator.
(§6) 2) The drug was prepared with dimethyl sulfoxide (DMSO) as a 10 mM stock solution. Prior to use, the solution was diluted 3 times with DMSO, and then diluted with a 3-fold gradient to obtain 9 concentration gradients. Then, each concentration of the compound was further diluted 200 times with the culture media (to ensure that DMSO concentration in the culture system was 0.1%), 2 repeat wells for each concentration. The diluted solution of each compound (20 μL) was added to the cell culture well (with a final concentration of 10 μM, 3.3 μM, 1.1 μM . . . ), and shaken gently for mixing. In addition, three negative control wells containing only cells and three blank control wells containing only culture medium (20 μL DMSO diluted 200 times with culture medium being added to six wells) were included.
as §3, §4, §5

[3] = system: CWR22RV1 cells; assay: Compound in combination with androgen receptor inhibitor HC-1119, proliferation of CWR22RV1 cells (CCK-8); conditions: for IC50: Homo sapiens, CWR22Rv1, 144 h, 6 days, read-out: IC50 for inhibition on the activity of CWR22RV1
Protocol: (§7) • CWR22RV1 cell line (Cell Bank of Chinese Academy of Sciences, TCHu100) • FBS (Gibco, Cat. No. 10099-141) • 0.01M PBS (Biosharp, Cat. No. 162262) • RIPM1640 (Hyclone, Cat. No. 308090.01) • Penicillin-Streptomycin (Hyclone, Cat. No. SV30010) • Cell counting kit-8 (Signalway Antibody, Cat. No. CP002) • DMSO (Sigma, Cat. No. D5879) • Centrifuge Tube, 15 ml (Excell Bio, Cat. No. CS015-0001) • Cell Culture Dish, (Excell Bio, Cat. No. CS016-0128) • 96-well cell culture cluster (Corning, Cat. No. 3599) Experimental Method:
1) CWR22RV1 cells were subcultured in cell culture media, and the cells in good growth condition were seeded in a 96-well plate, 60 μL for each well, thus the number of cells per well was 2000, then the plate was cultured overnight in a 37° C., 5% CO2 cell incubator.
as §2, with “10 μM, 3 μM), then” for “10 μM, 1 μM), then”
as §3, §4, §5

[4] = system: MDA-MB-231 cells; assay: Inhibition of proliferation of MDA-MB-231 cells (CCK-8)
Protocol: as §7, with “MDA-MB-231” for “CWR22RV1”, “TCHu104)” for “TCHu100)”, “3599) 3.” for “3599)”, “Method” for “Method:”
1) MDA-MB-231 cells were subcultured in cell culture media, and the cells in good growth condition were seeded in a 96-well plate, 80 μL for each well, thus the number of cells per well was 1500, then the plate was cultured overnight in a 37° C., 5% CO2 cell incubator.
as §6, §3, §4, §5

[5] = system: MCF-7 cells; assay: Inhibition of proliferation of MCF-7 cells (CCK-8)
Protocol: as §7, with “MCF-7” for “CWR22RV1”, “TCHu74)” for “TCHu100)”, “3599) 3.” for “3599)”, “Method” for “Method:”
1) MCF-7 cells were subcultured in cell culture media, and the cells in good growth condition were seeded in a 96-well plate, 80 μL for each well, thus the number of cells per well was 1000, then the plate was cultured overnight in a 37° C., 5% CO2 cell incubator.
as §6, with “mixing.” for “mixing. In addition, three negative control wells containing only cells and three blank control wells containing only culture medium (20 μL DMSO diluted 200 times with culture medium being added to six wells) were included.”
In addition, three negative control wells containing only cells and three blank control wells containing only culture medium (20 μL DMSO diluted 200 times with culture medium being added to six wells) were included.
as §3, §4, §5

[6] = system: CWR22RV1 cells; assay: Inhibition of proliferation of CWR22RV1 cells (CCK-8); conditions: Homo sapiens, CWR22Rv1, 144 h, 6 days
Summary of the method: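 Cells seeded at 1500/well, cultured overnight, then exposed to compounds in 3-fold dilutions (9 concentrations from 10 μM top final, 0.1% DMSO) for 6 days at 37 °C. Viability read by CCK-8 absorbance at 450 nm after 2.5 h; IC50 from dose-response inhibition fit.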

[7] = system: MDA-MB-453 cells; assay: Inhibition of proliferation of MDA-MB-453 cells (CCK-8); conditions: Homo sapiens, 144 h, 6 days, CCK-8
Protocol: as §7, with “MDA-MB-453” for “CWR22RV1”, “TCHu35)” for “TCHu100)”, “3599) 3.” for “3599)”, “Method” for “Method:”
1) MDA-MB-453 cells were subcultured in cell culture media, and the cells in good growth condition were seeded in a 96-well plate, 80 μL for each well, thus the number of cells per well was 1500, then the plate was cultured overnight in a 37° C., 5% CO2 cell incubator.
as §6, §3, §4, §5

[8] = Homo sapiens, 144 h, 6 days, CCK-8

| IC50 ([1]; compound alone, Vcap cells) [nM] | IC50 ([1]; in combination with 1 μM HC-1119, Vcap cells) [nM] | IC50 ([1]; in combination with 10 μM HC-1119, Vcap cells) [nM] | IC50 [2, 8] [nM] | IC50 [4, 8] [nM] | IC50 ([5]; Homo sapiens, MCF7, 144 h, 6 days, CCK-8) [nM] | IC50 [7] [nM] | SMILES | effect of combination with HC-1119 on inhibitory action on Vcap cells (in words) ([1]; in combination with HC-1119, Vcap cells) | inhibitory action on Vcap cells (in words) [2] | IC50 ([3]; compound alone, CWR22RV1 cells) [nM] | IC50 ([3]; in combination with 3 μM HC-1119, CWR22RV1 cells) [nM] | IC50 ([3]; in combination with 10 μM HC-1119, CWR22RV1 cells) [nM] | effect of combination with HC-1119 on inhibitory action on CWR22RV1 cells (in words) ([3]; in combination with HC-1119, CWR22RV1 cells) | inhibitory action on MDA-MB-231 cells (in words) [4] | inhibitory action on MCF-7 cells (in words) [5] | IC50 [6] [nM] |
| --- | --- | --- | --- | --- | --- | --- | --- | --- | --- | --- | --- | --- | --- | --- | --- | --- |
| 3.9 | 0.076 | 0.027 | 3.9 | – | – | – | [2H]C([2H])([2H])n1cc(-c2cc(S(=O)(=O)CC)ccc2N2CCC3(CC2)CC3(F)F)c2cc[nH]c2c1=O [Compound 231, 4-(2-(1,1-difluoro-6-aza-spiro[2.5]octan-6-yl)-5-(ethylsulfonyl)phenyl)-6-trideuteromethyl-1H-pyrrolo[2,3-c]pyridin-7(6H)-one] | improve the inhibitory action | effective inhibitory action | 1.8 | 0.65 | 0.51 | improve the inhibitory action | – | – | – |
| – | – | – | – | 39 | 29 | 720 | Cn1cc(-c2cc(S(C)(=O)=O)ccc2N2CCC3(CC2)CC3(F)F)c2cc[nH]c2c1=O [Compound 178, 4-(2-(1,1-difluoro-6-aza-spiro[2.5]octan-6-yl)-5-(methylsulfonyl)phenyl)-6-methyl-1H-pyrrolo[2,3-c]pyridin-7(6H)-one] | – | – | – | – | – | – | effective inhibitory action | effective inhibitory action | 5 |

From patent US12162878B2 (HINOVA PHARMACEUTICALS INC., priority 2018, dated 2024)
